“And” between values parts separate entries of the source, which are not always exact repeats. Equal entries are not always repeated. “Also recorded” adds a separate entry of the source. Where two headings read alike, the source gives them in different places.
Assays:
DLD-1 cells (KRAS^G13D) = test: Cell viability (CellTiterGlo), DLD-1; format: cell-based, human; conditions: for effect on cell viability: DLD-1, 0–20 μM, up to 72 h; for IC50: Homo sapiens
Description: (§1) Fig. 5 Abd-7 results on RAS-dependent signalling pathways and cell viability. a, b DLD-1 (a) or H358 (b) cells were serum-starved for 24 h, incubated in mono-layer with Abd-7 in a range from 2, 5, 10 and 20 μM for 3 h and stimulated with EGF 10 min. Proteins were extracted and separated by SDS-PAGE and transferred to membranes for Western analysis with anti-pAKT, anti-pERK, anti-pan AKT and anti-pan ERK. Anti-cyclophilin B antibody was the loading control. Signal was developed using standard ECL. c–e Effects of compounds Abd-2, Abd-4, Abd-5, Abd-6, and Abd-7 on the viability of human cancer cells lines was assessed for a 2-D culture of DLD-1 (mutant KRAS^G13D) cells and HT1080 cells (mutant NRAS^Q61K). The cells were treated with a dose range from 0 μM to 20 μ and incubated for 72 h when cell viability was assessed using CellTitreGlo. […] Each experiment was repeated at least three times (a, b) and four times (c, d). Where error bars are presented, they correspond to mean values ± SD of biological repeats […]
(§2) Cancer cell lines were in seeded in ViewPlates-96 microplates (PerkinElmer). DLD-1 cells were plated at 10,000 cells per well and HT1080 cells at 7500 cells per well and cultured in DMEM, high glucose, GlutaMAX media containing 10% FBS at 37 °C in 5% CO2 atmosphere. Cells were cultured overnight and the compounds (dissolved in DMSO and diluted to 0.2% DMSO) were added to the cells at concentrations ranging from 0 to 20 μM. The cells were incubated under standard culture conditions for either 24, 48 or 72 h. Cell viability was as quantitated using the CellTiterGlo Luminescent Cell Viability Assay (Promega) according to the manufacturer’s instructions to measure ATP generated by metabolically active cells. Luminescent signals were measured using an Envision 2103 Multilabel Microplate Reader (PerkinElmer). The luminescence signals obtained from the compound-treated cells were normalized against the signal for DMSO-only treated cells. The IC50 values, calculated from the 48 and 72 h CellTiterGlo data, were generated by non-linear regression using the software GraphPad Prism 7.00 for windows (GraphPad Inc).
(§3) Supplementary Figure 7: The effect of Abd compounds on the viability of cancer cells The effect of the chemical series on the viability of human cancer cells lines DLD -1 (a colorectal cancer cell line with mutant KRAS
(§4) ) and HT1080 (a fibrosarcoma cell line with
(§5) ). The cells were treated with a dose range from […] of either
(§6) Abd-2, Abd-4, Abd-5, Abd-6 and Abd-7 and incubated for 24 or 48 hours. Cell viability was assessed using CellTitreGlo . In each case, the data are normalized to cells treated with DMSO only. Panels a and b are DLD-1 viability and panels c and d are HT1080 viability.
(§7) The IC50 for Abd-7 at 48 & 72 […]
(§8) hours are shown in panel f. Each experiment was repeated at least four times ( a to d).
(§9) Where error bars are presented, they correspond to mean values ± SD of biological repeats.
(§10) (1 picture or pasted object on this page, not shown here)

GST-KRASG12V-GppNHp = target: T1, GST-KRASG12V-GppNHp (Homo sapiens, UniProt P01116, G12V); test: 1H CPMG NMR protein titration for Kd; format: binding; conditions: for Kd: CPMG NMR titration, 55 μM compound, read-out: Kd (binding affinity)
T1 construct: made in house; host or cells: E. coli (pGEX-2T; strain named only for the HRAS plasmids)
Description: Typical experimental parameters for Carr–Purcell-Meiboom-Gill (CPMG) NMR spectroscopy were the following: total echo time, 40 ms; relaxation delay, 2 s; and number of transients, […][53]. The PROJECT-CPMG sequence (90°x-[Ƭ-180°y-Ƭ- 90°y-Ƭ-180°y-Ƭ]n-acq) was applied. Water suppression was achieved by pre-saturation. Prior to Fourier transformation, the data were multiplied with an exponential function with 3-Hz line broadening. The CPMG experiments were conducted at a ^1H frequency of 700 MHz using a Bruker Avance with 5 mm inverse TCI 1 H/13 C/15 N cryo-probe. All experiments were conducted at 298 K and lapsed 128 scans. Furthermore, 3 mm diameter NMR tubes with a sample volume of 200 µl were used in all experiments. Solutions were buffered using a D2O PBS buffer corrected to pH 7.4. The sample preparation is exemplified as follow: with 5 µM of protein (PBS pH 7.4, 5 mM MgCl2), the compound (1.1 µl of a 10 mM (55 uM) solution in DMSO-d6) was added to an eppendorf before sequential addition of the D2O 10 mM PBS, 5 mM MgCl2 buffer adjusted to pH 7.4 (194.0 µl) and protein (4.9 µl, 205 µM, the protein is in an H2O-based buffer for stability reason). The resulting solution was vortexed to be fully mixed and transferred to a 3 mm NMR tube before the run. Negative controls (compound alone, without the protein) were prepared in a similar manner, in order to obtain an end volume of 200 µl. CPMG protein titration experiments were carried out at a fixed compound concentration and a variable protein concentration. It was estimated that 55 μM solution of the compound was optimum for a good CPMG; protein was titrate increasingly from 0 µM until the signal of the compound was undetected in the proton NMR. The integrations of the protons acquired were compared to the reference (compound alone, 0 µM of protein) in order to obtain a percentage of decrease for each concentration of protein. Three different proton signals were used and a mean was calculated for each run. Each protein concentration was run in triplicate and a mean was calculated for each concentration. Where error bars are presented, they correspond to mean values ± SD of experimental repeats. Concentration and percentage of decrease were plotted and Kd fitting was run on the generated curve using Origin® with the following function: A*(1/(2*C))*((B + x + C)-sqrt(((B + x + C)^2)-(4*x*C))) where A is the maximum % of inhibition (i.e. 100), B is the Kd and C is the concentration of the compound which should not be fixed in the Origin® Equation due to potential variations in compound solubility.
Supplementary Figure 6: Abd-7 Binding in WaterLOGSy and Kd calculations in CPMG WaterLOGSY and CPMG NMR orthogonal analysis of Abd-5 (panel a, b), Abd-6 (c, d), and Abd-7 (e, f) with GST-KRASG12V-GppNHp. For each waterLOGSY profile, the proton NMR spectrum of the compound is shown together the spectra of the compound after incubation with the KRAS (the NOE transfers occurs when the compounds displace those waters upon binding to the protein). The Kd of interaction of the compounds come from fitting a binding curve (right of panels b, d, f) of a CPMG titration (shown on the left of panels b, d, f). The calculated Kd is shown for each compound.
(MW), Kd, Solubility and ligand efficiency (LE). Each experiment was repeated at least three times. Where error bars are presented, they correspond to mean values ± SD of experimental repeats (b, d and f).

HT1080 cells (NRAS^Q61K) = test: Cell viability (CellTiterGlo), HT1080; format: cell-based, human; conditions: for effect on cell viability: HT1080, 0–20 μM, up to 72 h; for IC50: Homo sapiens, HT-1080
Description: as §1, §2, §3, §4, §5, §6, §7, §8, §9, §10

| Structure (SMILES) | effect on cell viability (DLD-1 cells (KRAS^G13D)) | ligand efficiency (GST-KRASG12V-GppNHp) | Kd (GST-KRASG12V-GppNHp) [µM] | effect on cell viability (HT1080 cells (NRAS^Q61K)) | IC50 (DLD-1 cells (KRAS^G13D); DLD-1, 72 h, read-out: IC50 cell viability) [µM] | IC50 (DLD-1 cells (KRAS^G13D); DLD-1, 48 h, Supplementary Fig. 7f, read-out: DLD-1 IC50 48h) [µM] | IC50 (DLD-1 cells (KRAS^G13D); DLD-1, 48 h as printed in discussion, read-out: IC50 cell viability) [µM] | IC50 (HT1080 cells (NRAS^Q61K); HT1080, 48 h, Supplementary Fig. 7f, read-out: HT1080 IC50 48h) [µM] | IC50 (HT1080 cells (NRAS^Q61K); HT1080, 48 h as printed in discussion, read-out: IC50 cell viability) [µM] | IC50 (HT1080 cells (NRAS^Q61K); HT1080, 72 h, read-out: IC50 cell viability) [µM] |
| --- | --- | --- | --- | --- | --- | --- | --- | --- | --- | --- |
| COc1nc(-c2cccc3c2O[C@H](CNC(=O)C2CCOCC2)CO3)ccc1Nc1cccc(CN(C)C)c1 [Abd-6] | have an effect on the viability | ~0.3 | 0.038 | have an effect on the viability |  |  |  |  |  |  |
| O=C(NCC1COc2ccccc2O1)c1ccco1 (stereo not drawn) [Abd-2] | no effect on cell viability; also recorded: had not effect |  |  | no effect on cell viability; also recorded: had not effect |  |  |  |  |  |  |
| COc1nc(-c2cccc3c2OCCO3)ccc1Nc1ccc(CN(C)C)cc1 [Abd-7] |  | ~0.3 and 0.34 | 0.051 |  | 8 | 9.8 | ~8 | 9.4 | ~10 | 10 |
| COc1cccc(-c2cccc3c2OC(CNC(=O)c2ccc(OCCN(C)C)cc2)CO3)n1 (stereo not drawn) [Abd-5] | have an effect on the viability | ~0.3 | 0.22 | have an effect on the viability |  |  |  |  |  |  |
